Reference: patent US20090042951A1, “Blood Pressure Reduction in Salt-Sensitive Hypertension” (priority 2004, published 2009)

Columns and labels:
[1] = test system: Dahl salt-sensitive (SS/Jr) rats; test: Telemetric arterial blood pressure monitoring in Dahl salt-sensitive rats on high salt diet; assay type: in vivo, rat; conditions: for anti-hypertensive activity: found by the methods described herein
Experimental: (§1) Male Dahl salt-resistant (SR/Jr) rats (250-300 gm, Harlan, Indianapolis, Ind.) were used as controls. Non-salt-sensitive, spontaneously hypertensive rats (SHR) were also employed in some experiments. Each rat was housed individually with a 12 hour light/12 hour dark cycle. The animal use protocols were approved by the Chicago—West Side Veterans Administration Institutional Animal Care and Use Committee.
(§2) Arterial blood pressures in unrestrained rats were monitored using a model TA11PA-C20 (Data Science, International, St. Paul, Minn.) implantable telemetric blood pressure monitoring system. The rats were anesthetized using an intraperitoneal injection (50 mg/kg i.p.) of nembutol sodium solution prior to implantation of the monitor. The radio-transmitter catheter was inserted via a midline abdominal incision into the left femoral artery and sutured in place after the tip of the catheter was advanced into the proximal aorta. The catheter was tunneled under the skin and the body of the transmitter was positioned in a subcutaneous pocket near the right flank of the rat. Data acquisition began after normal diurnal blood pressure variability had been reestablished, typically about seven days after surgery. Continuous measurements of pulsatile central aortic blood pressure were recorded by a receiver placed under each rat's cage.
A baseline arterial blood pressure was established for each rat from continuous measurements made over a two day period prior to the start of an experiment. […] Monitoring continued for four additional days. […] The p-value in both cases is less than 0.05.

dogs = conditions: administration of rolipram, increased cAMP; cited from earlier work
[2] = test system: spontaneously hypertensive rats (SHR); test: Telemetric arterial blood pressure monitoring in spontaneously hypertensive rats on 8% NaCl diet; assay type: in vivo, rat; conditions: single IP injection 10 mg/kg, continuous telemetric recording
Experimental: as §1
as §2, with “cage. […]” for “cage.”

Row | SMILES | anti-hypertensive activity [1] | renal vascular resistance (dogs) | secretion of electrolytes (dogs) | duration of drop in blood pressure ([1]; Dahl SS/Jr rat, 8% NaCl diet, single IP injection 10 mg/kg) [days] | effect on arterial blood pressure ([1]; Dahl SS/Jr rat, 8% NaCl diet, single IP injection 10 mg/kg, continuous telemetric recording) | effect on arterial blood pressure [2]
1 | COc1ccc(C(=O)Nc2c(Cl)cncc2Cl)cc1OC1CCCC1 [RP73401] | exhibit anti-hypertensive activity |  |  |  |  | 
2 | O=c1c2cccnc2n(-c2cccc([N+](=O)[O-])c2)c(=O)n1Cc1ccncc1 [RS25344] | exhibit anti-hypertensive activity |  |  |  |  | 
3 | CCn1c(=O)c2ccccc2n(-c2cccc([N+](=O)[O-])c2)c1=O [TVX2706] | exhibit anti-hypertensive activity |  |  |  |  | 
4 | COc1ccc(C2CNC(=O)C2)cc1OC1CCCC1 (stereo not drawn) [rolipram, Rolipram] | exhibit anti-hypertensive activity | reduces renal vascular resistance | promotes secretion of electrolytes | > 2 | very significant and prolonged (>2 days) drop in blood pressure | brief, shallow dip in blood pressure immediately after rolipram injection followed by a gradual decline and recovery of blood pressure
